How the values were obtained:
[1] = molecular target: T1, HiBit-BRG1 fusion protein in stable HeLa cell line expressing HiBit-BRG1 and LgBit (Homo sapiens, UniProt P51532); assay: HiBiT-BRG1 cell-based degradation assay (Nano-Glo HiBiT, 24 h); conditions: HeLa HiBit-BRG1/LgBit cells; for DC50: read-out: BRMG1 HiBit Degradation IC50; for Dmax: top dose 30 μM, read-out: BRG1 HiBit Degradation Maximum (%)
T1 construct: expressed in transfected cells
In short: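 Degradation calculated from NanoBiT luminescence relative to DMSO-treated cells (high) and cells given 2 μM known BRM/BRG1 degrader (low). HeLa cells stably expressing HiBiT-BRG1 plus LgBiT were exposed to compound for 24 h before lytic HiBiT detection.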

[2] = molecular target: T2, HiBiT-BRM fusion protein in stable HeLa cell line (Homo sapiens, UniProt P51531); assay: HiBiT-BRM cell-based degradation assay (Nano-Glo HiBiT Lytic Detection, 24 h); set-up: DC50: scale not given here; conditions: HeLa HiBiT-BRM cells; for DC50: read-out: BRM HiBit Degradation IC50; for BRM HiBit Degradation Maximum (%): top dose 30 μM
T2 construct: expressed in transfected cells
In short: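 HiBiT-tagged BRM levels in a stable HeLa line are measured after one day of compound treatment (up to 30 μM final, duplicate 10-point curves) by adding LgBiT lytic reagent and reading bioluminescence; values are expressed relative to vehicle and a 2 μM degrader control.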

T1 sequence (P51532 whole entry, the tested form may be a part): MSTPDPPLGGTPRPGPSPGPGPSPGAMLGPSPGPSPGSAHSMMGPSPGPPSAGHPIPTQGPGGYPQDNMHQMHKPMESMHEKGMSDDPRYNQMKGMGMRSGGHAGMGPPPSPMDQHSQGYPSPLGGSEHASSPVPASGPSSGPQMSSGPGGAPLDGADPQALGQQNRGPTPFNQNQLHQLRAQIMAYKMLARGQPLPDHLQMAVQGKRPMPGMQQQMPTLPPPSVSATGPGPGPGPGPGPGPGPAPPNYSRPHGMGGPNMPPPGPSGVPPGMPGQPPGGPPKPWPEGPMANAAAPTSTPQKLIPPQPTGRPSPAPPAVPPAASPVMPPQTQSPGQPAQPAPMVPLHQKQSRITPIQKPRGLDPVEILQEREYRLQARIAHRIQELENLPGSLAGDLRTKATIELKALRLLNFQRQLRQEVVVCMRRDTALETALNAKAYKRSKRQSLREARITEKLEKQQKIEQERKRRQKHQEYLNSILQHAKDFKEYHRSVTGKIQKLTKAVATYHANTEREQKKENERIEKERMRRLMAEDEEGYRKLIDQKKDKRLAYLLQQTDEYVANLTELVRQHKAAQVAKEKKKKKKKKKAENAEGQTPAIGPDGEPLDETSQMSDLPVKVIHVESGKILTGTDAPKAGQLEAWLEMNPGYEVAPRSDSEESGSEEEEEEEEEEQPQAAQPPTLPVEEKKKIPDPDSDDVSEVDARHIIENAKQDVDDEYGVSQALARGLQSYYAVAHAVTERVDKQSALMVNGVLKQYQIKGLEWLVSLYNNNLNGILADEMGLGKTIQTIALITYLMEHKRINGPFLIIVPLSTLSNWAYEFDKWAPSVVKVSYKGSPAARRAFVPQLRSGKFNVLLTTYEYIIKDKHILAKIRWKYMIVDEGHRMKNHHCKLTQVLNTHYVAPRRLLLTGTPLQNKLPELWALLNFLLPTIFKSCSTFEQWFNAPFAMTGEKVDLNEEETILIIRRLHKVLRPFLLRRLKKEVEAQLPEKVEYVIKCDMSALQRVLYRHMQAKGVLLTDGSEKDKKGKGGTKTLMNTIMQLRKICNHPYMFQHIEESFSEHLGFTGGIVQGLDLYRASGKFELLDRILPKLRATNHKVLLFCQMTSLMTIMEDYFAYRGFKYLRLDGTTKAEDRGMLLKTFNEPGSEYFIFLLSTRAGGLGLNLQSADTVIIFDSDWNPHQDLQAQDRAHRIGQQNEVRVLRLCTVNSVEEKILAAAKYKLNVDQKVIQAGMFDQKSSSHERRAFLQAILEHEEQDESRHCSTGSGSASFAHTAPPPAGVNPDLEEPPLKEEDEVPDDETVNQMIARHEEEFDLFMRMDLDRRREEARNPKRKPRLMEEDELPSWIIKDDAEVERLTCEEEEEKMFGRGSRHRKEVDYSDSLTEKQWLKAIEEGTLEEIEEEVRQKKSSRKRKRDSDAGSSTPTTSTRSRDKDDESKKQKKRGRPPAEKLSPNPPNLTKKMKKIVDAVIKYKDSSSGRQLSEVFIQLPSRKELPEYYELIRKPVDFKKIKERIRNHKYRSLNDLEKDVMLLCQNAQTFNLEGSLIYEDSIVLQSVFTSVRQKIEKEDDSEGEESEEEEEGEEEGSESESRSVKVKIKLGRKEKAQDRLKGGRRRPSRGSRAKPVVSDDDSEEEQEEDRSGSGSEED
T2 sequence (P51531 whole entry, the tested form may be a part): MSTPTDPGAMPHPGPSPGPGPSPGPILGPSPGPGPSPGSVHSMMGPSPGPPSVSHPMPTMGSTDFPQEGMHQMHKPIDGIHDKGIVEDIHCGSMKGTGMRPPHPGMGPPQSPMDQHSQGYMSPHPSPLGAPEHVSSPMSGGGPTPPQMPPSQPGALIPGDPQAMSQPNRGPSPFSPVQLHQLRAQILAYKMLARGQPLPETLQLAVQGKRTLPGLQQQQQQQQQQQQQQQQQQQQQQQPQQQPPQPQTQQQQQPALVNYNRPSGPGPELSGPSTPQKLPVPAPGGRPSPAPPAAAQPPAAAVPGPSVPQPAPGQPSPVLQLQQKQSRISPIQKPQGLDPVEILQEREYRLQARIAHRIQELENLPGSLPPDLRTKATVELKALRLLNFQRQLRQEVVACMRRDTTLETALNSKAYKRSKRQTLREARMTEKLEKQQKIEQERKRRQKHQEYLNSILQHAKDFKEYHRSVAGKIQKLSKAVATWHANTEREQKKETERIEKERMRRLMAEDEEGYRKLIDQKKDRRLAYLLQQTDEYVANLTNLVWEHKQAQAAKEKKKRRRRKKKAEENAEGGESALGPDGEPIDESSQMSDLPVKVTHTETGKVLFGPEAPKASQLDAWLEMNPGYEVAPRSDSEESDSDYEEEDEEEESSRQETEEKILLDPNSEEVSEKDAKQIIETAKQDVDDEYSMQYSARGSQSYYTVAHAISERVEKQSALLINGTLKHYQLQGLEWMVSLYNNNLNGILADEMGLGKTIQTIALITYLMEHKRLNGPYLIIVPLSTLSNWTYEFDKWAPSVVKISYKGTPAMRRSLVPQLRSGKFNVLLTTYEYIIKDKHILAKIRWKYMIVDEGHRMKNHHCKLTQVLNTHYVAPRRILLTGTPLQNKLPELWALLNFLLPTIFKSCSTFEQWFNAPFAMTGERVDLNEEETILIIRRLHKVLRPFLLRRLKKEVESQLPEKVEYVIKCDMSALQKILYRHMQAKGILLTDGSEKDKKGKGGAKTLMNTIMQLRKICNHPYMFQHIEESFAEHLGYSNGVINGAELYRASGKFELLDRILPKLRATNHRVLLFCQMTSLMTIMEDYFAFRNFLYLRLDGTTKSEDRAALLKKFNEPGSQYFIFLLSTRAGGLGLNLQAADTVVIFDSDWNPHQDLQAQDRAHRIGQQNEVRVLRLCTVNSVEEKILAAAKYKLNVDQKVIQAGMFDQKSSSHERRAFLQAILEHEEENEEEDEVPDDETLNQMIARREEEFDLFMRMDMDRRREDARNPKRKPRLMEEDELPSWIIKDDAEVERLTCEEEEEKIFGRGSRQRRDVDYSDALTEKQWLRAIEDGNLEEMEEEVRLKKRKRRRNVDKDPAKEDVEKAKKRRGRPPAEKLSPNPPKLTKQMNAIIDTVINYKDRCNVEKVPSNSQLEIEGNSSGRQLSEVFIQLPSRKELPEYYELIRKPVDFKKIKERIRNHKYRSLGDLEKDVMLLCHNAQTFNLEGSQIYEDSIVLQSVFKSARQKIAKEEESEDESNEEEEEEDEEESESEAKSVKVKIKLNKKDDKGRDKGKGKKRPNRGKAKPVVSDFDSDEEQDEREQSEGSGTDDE

## Cc1ncsc1-c1ccc([C@H](C)NC(=O)[C@@H]2C[C@@H](O)CN2C(=O)[C@@H](c2cc(N3CCC[C@H](c4ccc5cc(-c6ccccc6O)nnc5c4)C3)no2)C(C)C)cc1 [Compound 90, (2S,4R)-4-hydroxy-1-((R)-2-(3-((R)-3-(3-(2-hydroxyphenyl)cinnolin-7-yl)piperidin-1-yl)isoxazol-5-yl)-3-methylbutanoyl)-N-((S)-1-(4-(4-methylthiazol-5-yl)phenyl)ethyl)pyrrolidine-2-carboxamide]
[1]
  DC50: < 10 nM
  Dmax: > 75%
[2]
  DC50: < 10 nM
  BRM HiBit Degradation Maximum (%): A (“A” indicates maximum degradation ≥75%)

## Cc1ncsc1-c1ccc([C@H](C)NC(=O)[C@@H]2C[C@@H](O)CN2C(=O)[C@@H](c2cc(N3CCC[C@@H](c4ccc5cc(-c6ccccc6O)nnc5c4)C3)no2)C(C)C)cc1 [Compound 91, (2S,4R)-4-hydroxy-1-((R)-2-(3-((S)-3-(3-(2-hydroxyphenyl)cinnolin-7-yl)piperidin-1-yl)isoxazol-5-yl)-3-methylbutanoyl)-N-((S)-1-(4-(4-methylthiazol-5-yl)phenyl)ethyl)pyrrolidine-2-carboxamide]
[1]
  DC50: < 10 nM
  Dmax: > 75%
[2]
  DC50: < 10 nM
  BRM HiBit Degradation Maximum (%): A (“A” indicates maximum degradation ≥75%)

## Cc1ncsc1-c1ccc([C@H](C)NC(=O)[C@@H]2C[C@@H](O)CN2C(=O)[C@@H](c2cc(N3CCC4(CC[C@H](c5ccc6cc(-c7ccccc7O)nnc6c5)C4)CC3)no2)C(C)C)cc1 [Compound 92, (2S,4R)-4-hydroxy-1-((R)-2-(3-((S)-2-(3-(2-hydroxyphenyl)cinnolin-7-yl)-8-azaspiro[4.5]decan-8-yl)isoxazol-5-yl)-3-methylbutanoyl)-N-((S)-1-(4-(4-methylthiazol-5-yl)phenyl)ethyl)pyrrolidine-2-carboxamide]
[1]
  DC50: > 10 nM
  Dmax: > 75%
[2]
  DC50: < 10 nM
  BRM HiBit Degradation Maximum (%): A (“A” indicates maximum degradation ≥75%)

## Cc1ncsc1-c1ccc([C@H](C)NC(=O)[C@@H]2C[C@@H](O)CN2C(=O)[C@@H](c2cc(N3CCC4(CC[C@@H](c5ccc6cc(-c7ccccc7O)nnc6c5)C4)CC3)no2)C(C)C)cc1 [Compound 93, (2S,4R)-4-hydroxy-1-((R)-2-(3-((R)-2-(3-(2-hydroxyphenyl)cinnolin-7-yl)-8-azaspiro[4.5]decan-8-yl)isoxazol-5-yl)-3-methylbutanoyl)-N-((S)-1-(4-(4-methylthiazol-5-yl)phenyl)ethyl)pyrrolidine-2-carboxamide]
[1]
  Dmax: < 50%
[2]
  DC50: < 10 nM
  BRM HiBit Degradation Maximum (%): A (“A” indicates maximum degradation ≥75%)

## Cc1ncsc1-c1ccc([C@H](C)NC(=O)[C@@H]2C[C@@H](O)CN2C(=O)[C@@H](c2cc(N3CCC4(CC3)CC(c3ccc5cc(-c6cccc(F)c6O)nnc5c3)C4)no2)C(C)C)cc1 [Compound 94, (2S,4R)-1-((R)-2-(3-(2-(3-(3-fluoro-2-hydroxyphenyl)cinnolin-7-yl)-7-azaspiro[3.5]nonan-7-yl)isoxazol-5-yl)-3-methylbutanoyl)-4-hydroxy-N-((S)-1-(4-(4-methylthiazol-5-yl)phenyl)ethyl)pyrrolidine-2-carboxamide]
[1]
  Dmax: < 50%
[2]
  DC50: < 10 nM
  BRM HiBit Degradation Maximum (%): A (“A” indicates maximum degradation ≥75%)

## Cc1ncsc1-c1ccc([C@H](C)NC(=O)[C@@H]2C[C@@H](O)CN2C(=O)[C@@H](c2cc(N3CC4(CCN(c5ccc6cc(-c7ccccc7O)nnc6c5)CC4)C3)no2)C(C)C)cc1 [Compound 95, (2S,4R)-4-hydroxy-1-((R)-2-(3-(7-(3-(2-hydroxyphenyl)cinnolin-7-yl)-2,7-diazaspiro[3.5]nonan-2-yl)isoxazol-5-yl)-3-methylbutanoyl)-N-((S)-1-(4-(4-methylthiazol-5-yl)phenyl)ethyl)pyrrolidine-2-carboxamide]
[1]
  DC50: < 10 nM
  Dmax: > 75%
[2]
  DC50: < 10 nM
  BRM HiBit Degradation Maximum (%): A (“A” indicates maximum degradation ≥75%)

## Cc1ncsc1-c1ccc([C@H](C)NC(=O)[C@@H]2C[C@@H](O)CN2C(=O)[C@@H](c2cc(N3CCC4(CCC(c5ccc6cc(-c7ccccc7O)nnc6c5)CC4)CC3)no2)C(C)C)cc1 [Compound 96, (2S,4R)-4-hydroxy-1-((R)-2-(3-(9-(3-(2-hydroxyphenyl)cinnolin-7-yl)-3-azaspiro[5.5]undecan-3-yl)isoxazol-5-yl)-3-methylbutanoyl)-N-((S)-1-(4-(4-methylthiazol-5-yl)phenyl)ethyl)pyrrolidine-2-carboxamide]
[1]
  DC50: > 10 nM
  Dmax: > 75%
[2]
  DC50: < 10 nM
  BRM HiBit Degradation Maximum (%): A (“A” indicates maximum degradation ≥75%)

## Cc1ncsc1-c1ccc([C@H](C)NC(=O)[C@@H]2C[C@@H](O)CN2C(=O)[C@@H](c2cc(-c3ccc4nnc(-c5ccccc5O)cc4c3)no2)C(C)C)cc1 [Compound 97, (2S,4R)-4-hydroxy-1-[(2R)-2-{3-[3-(2-hydroxyphenyl)cinnolin-6-yl]-1,2-oxazol-5-yl}-3-methylbutanoyl]-N-[(1S)-1-[4-(4-methyl-1,3-thiazol-5-yl)phenyl]ethyl]pyrrolidine-2-carboxamide]
[1]
  DC50: < 10 nM
  Dmax: > 75%
[2]
  DC50: < 10 nM
  BRM HiBit Degradation Maximum (%): A (“A” indicates maximum degradation ≥75%)

## Cc1ncsc1-c1ccc([C@H](C)NC(=O)[C@@H]2C[C@@H](O)CN2C(=O)[C@@H](c2cc(N3CCC4(CCN(c5ccc6nnc(-c7ccccc7O)cc6c5)C4)C3)no2)C(C)C)cc1 (stereo partly drawn) [Compound 98, (2S,4R)-4-hydroxy-1-((2R)-2-(3-(7-(3-(2-hydroxyphenyl)cinnolin-6-yl)-2,7-diazaspiro[4.4]nonan-2-yl)isoxazol-5-yl)-3-methylbutanoyl)-N-((S)-1-(4-(4-methylthiazol-5-yl)phenyl)ethyl)pyrrolidine-2-carboxamide]
[1]
  DC50: > 10 nM
  Dmax: > 75%
[2]
  DC50: < 10 nM
  BRM HiBit Degradation Maximum (%): A (“A” indicates maximum degradation ≥75%)

## Cc1ncsc1-c1ccc([C@H](C)NC(=O)[C@@H]2C[C@@H](O)CN2C(=O)[C@@H](c2cc(N3CC[C@@]4(CCN(c5ccc6cc(-c7ccccc7O)nnc6c5)C4)C3)no2)C(C)C)cc1 [Compound 99, (2S,4R)-4-hydroxy-1-((R)-2-(3-((R)-7-(3-(2-hydroxyphenyl)cinnolin-7-yl)-2,7-diazaspiro[4.4]nonan-2-yl)isoxazol-5-yl)-3-methylbutanoyl)-N-((S)-1-(4-(4-methylthiazol-5-yl)phenyl)ethyl)pyrrolidine-2-carboxamide]
[1]
  DC50: < 10 nM
  Dmax: > 75%
[2]
  DC50: < 10 nM
  BRM HiBit Degradation Maximum (%): A (“A” indicates maximum degradation ≥75%)

## Cc1ncsc1-c1ccc([C@H](C)NC(=O)[C@@H]2C[C@@H](O)CN2C(=O)[C@@H](c2cc(N3CC4(CCN4c4ccc5cc(-c6ccccc6O)nnc5c4)C3)no2)C(C)C)cc1 [Compound 100, (2S,4R)-4-hydroxy-1-((R)-2-(3-(1-(3-(2-hydroxyphenyl)cinnolin-7-yl)-1,6-diazaspiro[3.3]heptan-6-yl)isoxazol-5-yl)-3-methylbutanoyl)-N-((S)-1-(4-(4-methylthiazol-5-yl)phenyl)ethyl)pyrrolidine-2-carboxamide]
[1]
  Dmax: < 50%
[2]
  DC50: > 10 nM
  BRM HiBit Degradation Maximum (%): B (“B” indicates maximum degradation ≥50%)

— patent US20260193264A1, “BENZOYPARAZINE PYRAZINES AND THEIR USES” (FOGHORN THERAPEUTICS INC., priority 2022, published 2026)
